ChEMBL document CHEMBL5291721, “A preclinical secondary pharmacology resource illuminates target-adverse drug reaction associations of marketed drugs” (Nat Commun, 2023)

Tests used:
Bile salt export pump = Bile salt export pump (Homo sapiens, UniProt O95342); type: functional
[1] = biological target: Voltage-gated inwardly rectifying potassium channel KCNH2 (Homo sapiens, UniProt Q12809); type: functional; details: read-out: AC50
Also: assay procedure not described here.

Bile salt export pump, sequence (O95342 whole entry): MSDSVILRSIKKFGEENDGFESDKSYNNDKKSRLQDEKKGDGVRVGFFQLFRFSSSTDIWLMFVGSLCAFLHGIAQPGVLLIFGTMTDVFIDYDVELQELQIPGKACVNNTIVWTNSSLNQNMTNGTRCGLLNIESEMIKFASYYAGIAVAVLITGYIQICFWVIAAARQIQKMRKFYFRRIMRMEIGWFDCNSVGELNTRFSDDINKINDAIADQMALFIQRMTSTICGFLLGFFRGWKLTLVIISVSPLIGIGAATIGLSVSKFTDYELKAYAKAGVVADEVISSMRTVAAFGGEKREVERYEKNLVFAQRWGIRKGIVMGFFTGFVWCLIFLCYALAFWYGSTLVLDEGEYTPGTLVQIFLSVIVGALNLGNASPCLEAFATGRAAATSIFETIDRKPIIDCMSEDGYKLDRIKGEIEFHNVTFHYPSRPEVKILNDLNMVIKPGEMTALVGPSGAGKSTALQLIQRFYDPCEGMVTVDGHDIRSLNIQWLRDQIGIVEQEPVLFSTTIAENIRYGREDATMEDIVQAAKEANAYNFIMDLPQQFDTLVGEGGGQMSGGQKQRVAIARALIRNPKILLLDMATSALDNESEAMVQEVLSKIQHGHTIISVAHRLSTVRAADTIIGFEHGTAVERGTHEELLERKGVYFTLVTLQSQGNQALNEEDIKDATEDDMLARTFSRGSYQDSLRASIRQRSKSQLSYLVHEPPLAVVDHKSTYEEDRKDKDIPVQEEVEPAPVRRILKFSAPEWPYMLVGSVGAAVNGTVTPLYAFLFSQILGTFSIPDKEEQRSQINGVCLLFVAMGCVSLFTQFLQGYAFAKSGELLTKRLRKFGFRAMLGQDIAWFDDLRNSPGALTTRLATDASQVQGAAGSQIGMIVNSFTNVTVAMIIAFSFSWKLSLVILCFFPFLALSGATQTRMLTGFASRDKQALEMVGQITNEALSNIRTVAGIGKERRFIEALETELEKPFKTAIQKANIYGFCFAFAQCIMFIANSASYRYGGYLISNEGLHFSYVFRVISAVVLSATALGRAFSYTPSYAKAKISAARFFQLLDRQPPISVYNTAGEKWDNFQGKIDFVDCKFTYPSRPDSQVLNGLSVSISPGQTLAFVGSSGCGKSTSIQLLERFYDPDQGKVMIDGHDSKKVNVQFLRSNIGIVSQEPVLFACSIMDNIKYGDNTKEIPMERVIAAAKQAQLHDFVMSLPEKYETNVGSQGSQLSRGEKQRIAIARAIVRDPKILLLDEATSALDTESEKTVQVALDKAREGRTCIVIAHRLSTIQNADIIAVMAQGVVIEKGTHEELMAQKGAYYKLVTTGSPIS
Voltage-gated inwardly rectifying potassium channel KCNH2, sequence (Q12809 whole entry): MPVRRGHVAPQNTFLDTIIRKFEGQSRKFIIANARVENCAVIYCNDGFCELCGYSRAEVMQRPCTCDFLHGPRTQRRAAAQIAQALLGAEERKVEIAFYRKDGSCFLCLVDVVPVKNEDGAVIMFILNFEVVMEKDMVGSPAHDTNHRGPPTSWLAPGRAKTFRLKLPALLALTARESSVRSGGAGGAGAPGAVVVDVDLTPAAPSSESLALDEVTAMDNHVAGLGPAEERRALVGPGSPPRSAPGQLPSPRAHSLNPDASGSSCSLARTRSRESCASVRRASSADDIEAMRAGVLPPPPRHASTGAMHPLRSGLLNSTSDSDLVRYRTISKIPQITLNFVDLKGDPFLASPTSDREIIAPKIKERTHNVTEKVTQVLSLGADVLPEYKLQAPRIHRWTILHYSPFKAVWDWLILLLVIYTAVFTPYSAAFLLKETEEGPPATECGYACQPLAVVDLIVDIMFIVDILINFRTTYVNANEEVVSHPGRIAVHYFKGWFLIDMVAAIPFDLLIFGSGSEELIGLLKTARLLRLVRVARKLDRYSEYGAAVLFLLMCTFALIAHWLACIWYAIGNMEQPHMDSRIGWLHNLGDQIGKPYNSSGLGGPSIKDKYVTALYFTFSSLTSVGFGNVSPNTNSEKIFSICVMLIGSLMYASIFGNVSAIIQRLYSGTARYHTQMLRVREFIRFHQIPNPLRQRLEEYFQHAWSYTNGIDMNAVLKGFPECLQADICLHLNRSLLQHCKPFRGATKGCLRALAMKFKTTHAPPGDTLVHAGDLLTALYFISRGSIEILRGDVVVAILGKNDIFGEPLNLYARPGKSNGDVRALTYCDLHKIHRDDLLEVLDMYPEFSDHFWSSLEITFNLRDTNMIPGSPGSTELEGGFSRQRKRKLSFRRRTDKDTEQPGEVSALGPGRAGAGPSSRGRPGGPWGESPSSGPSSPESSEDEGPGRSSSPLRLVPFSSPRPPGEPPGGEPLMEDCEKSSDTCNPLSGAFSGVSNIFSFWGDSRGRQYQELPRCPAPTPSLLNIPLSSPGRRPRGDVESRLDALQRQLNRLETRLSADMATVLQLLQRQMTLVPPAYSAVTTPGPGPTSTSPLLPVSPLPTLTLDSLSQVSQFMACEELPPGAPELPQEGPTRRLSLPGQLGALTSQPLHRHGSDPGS

SMILES	AC50 (Bile salt export pump) [µM]	AC50 [1] [µM]
CCc1oc2ccccc2c1C(=O)c1cc(Br)c(O)c(Br)c1 [BENZBROMARONE]	3	> 30
CO/N=C(\C(=O)N[C@@H]1C(=O)N2C(C(=O)O)=C(COC(N)=O)CS[C@H]12)c1ccco1 [CEFUROXIME]	> 300	> 30
[H]/N=C(\N/C(=N/[H])NCCCCCCNC(=N)NC(=N)Nc1ccc(Cl)cc1)Nc1ccc(Cl)cc1 [CHLORHEXIDINE]	170	16.3
COC(=O)[C@H](c1ccccc1Cl)N1CCc2sccc2C1 [CLOPIDOGREL]	40	26.1
CN1C[C@H](C(=O)N[C@]2(C)O[C@@]3(O)[C@@H]4CCCN4C(=O)[C@H](Cc4ccccc4)N3C2=O)C[C@@H]2c3cccc4[nH]cc(c34)C[C@H]21 [DIHYDROERGOTAMINE]	28	10
CC1(C)O[C@@H]2C[C@H]3[C@@H]4C[C@H](F)C5=CC(=O)C=C[C@]5(C)[C@H]4[C@@H](O)C[C@]3(C)[C@]2(C(=O)CO)O1 [FLUNISOLIDE]	77	> 30
Nc1nc(O)c2ncn(COC(CO)CO)c2n1 [GANCICLOVIR]	> 300	> 30
C[C@H]1Oc2cc(cnc2N)-c2c(nn(C)c2C#N)CN(C)C(=O)c2ccc(F)cc21 [LORLATINIB]	120	> 30
Cc1cnc(NC(=O)C2=C(O)c3ccccc3S(=O)(=O)N2C)s1 [MELOXICAM]	160	> 30
CC[C@@H](CO)NC(=O)[C@@H]1C=C2c3cccc4[nH]cc(c34)C[C@H]2N(C)C1 [METHYLERGONOVINE]	> 300	> 30
CNCCC=C1c2ccccc2CCc2ccccc21 [NORTRIPTYLINE]	> 300	2.59
COc1ccnc(C[S+]([O-])c2nc3ccc(OC(F)F)cc3[nH]2)c1OC (centres undefined) [PANTOPRAZOLE]	190	> 30
COc1ccc(Cc2nccc3cc(OC)c(OC)cc23)cc1OC [PAPAVERINE]	46	5.6
CC(C)C[C@H](CN)CC(=O)O [PREGABALIN]	> 300	> 30
CCOc1cc(CC(=O)N[C@@H](CC(C)C)c2ccccc2N2CCCCC2)ccc1C(=O)O [REPAGLINIDE]	9.33	> 30
NC(=O)c1ncn([C@@H]2O[C@H](CO)[C@@H](O)[C@H]2O)n1 [RIBAVIRIN]	> 300	> 30
O=C(Nc1c(Cl)cncc1Cl)c1ccc(OC(F)F)c(OCC2CC2)c1 [ROFLUMILAST]	4	> 30
CCCN(CCc1cccs1)[C@H]1CCc2c(O)cccc2C1 [ROTIGOTINE]	260	3.8
CC[C@H]1OC(=O)[C@H](C)[C@@H](O[C@H]2C[C@@](C)(OC)[C@@H](O)[C@H](C)O2)[C@H](C)[C@@H](O[C@@H]2O[C@H](C)C[C@H](N(C)C)[C@H]2O)[C@](C)(O)C[C@@H](C)/C(=N\OCOCCOC)[C@H](C)[C@@H](O)[C@]1(C)O [ROXITHROMYCIN]	> 300	> 30
CC(C)N(CCCCOCC(=O)NS(C)(=O)=O)c1cnc(-c2ccccc2)c(-c2ccccc2)n1 [SELEXIPAG]	5.7	> 30
CC(=O)S[C@@H]1CC2=CC(=O)CC[C@]2(C)[C@H]2CC[C@@]3(C)[C@@H](CC[C@@]34CCC(=O)O4)[C@H]12 [SPIRONOLACTONE]	26	> 30
Cc1cc(CC(=O)O)n(C)c1C(=O)c1ccc(Cl)cc1 [ZOMEPIRAC]	72	> 30
